Assay results as given in patent US5480894A, “3-hydroxypyridin-4-one derivatives as chelating agents” (British Technology Group Limited, priority 1992, dated 1996).
Several values for one entry are separate records, joined by “and”; a condition that tells them apart may be missing. Equal values may be shown once. Read-outs that look alike come from different tables or passages of the source.

Assay: Partition coefficient Kpart between n-octanol and aqueous tris hydrochloride
Assay type: physicochemical
Details: n-octanol / aqueous tris hydrochloride (20 mM, pH 7.4); for logD: octanol/tris hydrochloride 20 mm
Description: The partition coefficients of four or five samples of each of the compounds of Examples 2 and 4 were measured using essentially the procedure described in Example 25 of UK Patent No. 2 136 807. For comparative purposes a similar measurement was made for the compound 1-(2-acetoxyethyl)-2-ethyl-3-hydroxypyridin-4-one which was prepared by an analogous procedure to that of Example 5 using acetyl chloride in place of isobutyryl chloride. The results obtained for the partition coefficient Kpart, being the ratio (concentration of compound in n-octanol)/concentration of compound in aqueous phase on partition between n-octanol and aqueous tris hydrochloride (20 mM, pH 7.4), are shown in the Table.

[1] = pH 7.4, mean of four or five samples, read-out: partition coefficient Kpart, Mean ± S.E. (converted)

## CCc1c(O)c(=O)ccn1CCOC(C)=O [CH3 COO, 1-(2-acetoxyethyl)-2-ethyl-3-hydroxypyridin-4-one, reference compound]
Individual samples 1-5
  partition coefficient Kpart (concentration in n-octanol / concentration in aqueous phase), individual samples: 1.500 and 0.948 and 0.940 and 0.962
[1]
  logD: 0.0366

## CCc1c(O)c(=O)ccn1CCOC(=O)C(C)(C)C [Example 2, 2-ethyl-3-hydroxy-1-(2-pivaloyloxyethyl)pyridin-4-one]
Individual samples 1-5, listed as (CH3)3 CCOO
  partition coefficient Kpart (concentration in n-octanol / concentration in aqueous phase), individual samples: 5.104 and 7.992 and 3.870 and 6.742 and 6.855
Mean of four or five samples
  partition coefficient Kpart, Mean ± S.E.: 6.113 ± 1.622

## CCc1c(O)c(=O)ccn1CCOC(=O)C(C)C [Example 4, 2-ethyl-3-hydroxy-1-[2-(α-methylpropionyloxy)ethyl]pyridin-4-one]
Individual samples 1-5, listed as (CH3)2 CHCOO
  partition coefficient Kpart (concentration in n-octanol / concentration in aqueous phase), individual samples: 4.541 and 4.224 and 4.797
[1]
  logD: 0.667
Individual samples 1-5, read-out: partition coefficient Kpart (concentration in n-octanol / concentration in aqueous phase), individual samples (converted)
  logD: 0.699
